Values of other authors, collected in paper PMC12715805, “Screening apelin analogues and a small molecule agonist as effective cardiovascular therapeutics against reperfusion injury” (RSC Medicinal Chemistry, 2025).

Conditions: G-protein-biased agonists; cited from earlier work
Text: The therapeutic potential of biased and unbiased agonists for the apelinR remains an area of active investigation, particularly regarding their effects on BP regulation. […] In contrast, the two non peptidic apelinR agonists, BMS-98622 ...

CCC(CC)n1c(Cc2cccs2)nc2cc(C(=O)N[C@H](CC(=O)O)CC(C)C)ccc21 [CMF-019]
vasodilation (in words): demonstrated vasodilation
